Assay results taken from ChEMBL document CHEMBL1144719, “1-(1-Arylethylidene)thiosemicarbazide derivatives: a new class of tyrosinase inhibitors” (Bioorg Med Chem, 2008).

The compounds below were run against T1, Tyrosinase (Agaricus bisporus, UniProt O42713).
T1 sequence (O42713 whole entry): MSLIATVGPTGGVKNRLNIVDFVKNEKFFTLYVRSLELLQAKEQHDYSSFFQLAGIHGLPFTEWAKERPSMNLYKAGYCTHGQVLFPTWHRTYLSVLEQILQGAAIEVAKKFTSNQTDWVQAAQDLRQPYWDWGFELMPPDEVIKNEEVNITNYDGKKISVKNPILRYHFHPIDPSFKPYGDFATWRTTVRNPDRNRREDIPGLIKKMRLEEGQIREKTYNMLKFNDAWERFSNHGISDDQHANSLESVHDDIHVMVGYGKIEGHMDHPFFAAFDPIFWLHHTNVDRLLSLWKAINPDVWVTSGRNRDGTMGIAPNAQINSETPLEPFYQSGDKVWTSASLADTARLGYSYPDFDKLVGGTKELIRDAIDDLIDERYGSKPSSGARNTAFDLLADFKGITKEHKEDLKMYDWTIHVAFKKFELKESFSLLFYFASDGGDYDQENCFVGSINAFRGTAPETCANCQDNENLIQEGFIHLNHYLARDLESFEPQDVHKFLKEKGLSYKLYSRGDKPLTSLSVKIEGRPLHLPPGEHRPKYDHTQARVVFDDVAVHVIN
In the case of `C/C(=N/NC(N)=S)c1ccc(O)cc1`, the IC50 is reported as 0.31 µM.
`COc1ccc(C/C(C)=N\NC(N)=S)cc1` was tested, and the IC50 was 0.42 µM.
`COc1ccc(/C=C/C(=O)O)cc1` [4-METHOXYCINNAMIC ACID] gave an IC50 of 410 µM.
With `C/C(=N/NC(N)=S)c1cnccn1` the IC50 was 0.88 µM.
`NC(=S)N/N=C(/C(=O)c1ccccc1)c1ccccc1` was tested, and the IC50 was 100 µM.
Work on `COc1ccc(/C(C)=N\NC(N)=S)cc1` yielded an IC50 of 0.11 µM.
`CC(=O)c1ccc(F)cc1` was tested, and the IC50 was 990 µM.
`C/C(=N/NC(N)=S)c1cccnc1` gave an IC50 of 0.82 µM.
For `CC(=O)c1ccccc1` [ACETOPHENONE], the IC50 was 850 µM.
Compound `C/C(=N/NC(N)=S)c1ccc(/C(C)=N\NC(N)=S)cc1` has an IC50 of 0.15 µM.
`C/C(=N/NC(N)=S)c1ccc(C(C)C)cc1` was tested, and the IC50 was 1 µM.
In the case of `C/C(=N/NC(N)=S)c1ccc(F)cc1`, the IC50 is reported as 0.17 µM.
Compound `O=c1cccccc1O` [TROPOLONE] has an IC50 of 0.4 µM.
Work on `C/C(=N/NC(N)=S)c1ccccc1` [ACETOPHENONE-THIOSEMICARBAZONE] yielded an IC50 of 0.34 µM.
With `C/C(=N/NC(N)=S)c1ccc(O)cc1O` the IC50 was 0.58 µM.
For `C/C(CCc1ccc(O)cc1)=N/NC(N)=S`, the IC50 was 0.54 µM.
For `C/C(=N/NC(N)=S)c1ccc(Br)cc1`, the IC50 was 0.52 µM.
With `COc1ccc(C(C)=O)cc1` [P-METHOXY-ACETOPHENONE] the IC50 was 2000 µM.
In the case of `C/C(=N/NC(N)=S)c1cccs1`, the IC50 is reported as 0.14 µM.
`NC(=S)N/N=C(\c1ccccc1)C(O)c1ccccc1` (stereo unspecified) showed an IC50 of 55.5 µM.
In the case of `NNC(N)=S` [THIOSEMICARBAZIDE], the IC50 is reported as 2000 µM.
Work on `C/C(=N/NC(N)=S)c1ccc(C)cc1` yielded an IC50 of 0.27 µM.
`C/C(=N/NC(N)=S)c1c(O)cc(O)cc1O` gave an IC50 of 22 µM.

Each compound was assayed against T2, Tyrosinase (Agaricus bisporus) (UniProt O42713) (assay: Inhibition of mushroom tyrosinase at 0.10 mM).
T2 sequence (whole entry): T1 sequence (O42713 whole entry)
`NC(=S)N/N=C(/C(=O)c1ccccc1)c1ccccc1` showed an inhibition of 47%.

These compounds were tested against T2, Tyrosinase (Agaricus bisporus) (assay: Inhibition of mushroom tyrosinase at 2 mM).
`COc1ccc(C(C)=O)cc1` [P-METHOXY-ACETOPHENONE] showed an inhibition of 47.2%.
`NNC(N)=S` [THIOSEMICARBAZIDE] was tested, and the inhibition was 39.9%.
